Data: ChEMBL document CHEMBL5321235, “Design, synthesis, and SAR study of novel flavone 1,2,4-oxadiazole derivatives with anti-inflammatory activities for the treatment of Parkinson's disease” (Eur J Med Chem, 2023)
Activity calls are given as the source filed them. The rule behind the calls is not given here.

What was measured:
[1] = test system: BV-2; assay: Inhibition of NF-kappaB activation in LPS-stimulated mouse BV-2 cells assessed as increase in IkappaBalpha expression at 5 to 10 uM pretreated for 18 hrs followed by LPS-stimulation and measured after 6 hrs by Western blot analysis; type: cell-based; conditions: dose 5-10 µM, time 24.0 hrs
[2] = test system: BV-2; assay: Inhibition of LPS-induced ERK phosphorylation in mouse BV-2 cells at 5 to 10 uM pretreated for 12 hrs followed by LPS-stimulation and measured after 6 hrs by Western blot analysis; type: cell-based; conditions: dose 5-10 µM, time 18.0 hrs
[3] = test system: BV-2; assay: Induction of apoptosis in LPS-induced mouse BV-2 cells assessed as increase in BAX expression at 5 to 10 uM pretreated for 18 hrs followed by LPS-stimulation and measured after 6 hrs by immunofluorescence analysis; type: functional, cell-based; conditions: dose 5-10 µM, time 24.0 hrs
[4] = test system: BV-2; assay: Induction of apoptosis in LPS-induced mouse BV-2 cells assessed as increase in Caspase3 expression at 5 to 10 uM pretreated for 18 hrs followed by LPS-stimulation and measured after 6 hrs by immunofluorescence analysis; type: functional, cell-based; conditions: dose 5-10 µM, time 24.0 hrs
[5] = test system: Mus musculus; assay: Antiinflammatory activity in C57BL/6J mouse assessed as inhibition of MPTP-induced NF-kappaB phosphorylation at 15 mg/kg, ip administered with compound once daily for 2 weeks followed by MPTP addition on day 8 and measured after 2 weeks of compound addition Western blot analysis; type: functional, organism-based
[6] = test system: BV-2; assay: Inhibition of LPS-induced ROS production in mouse BV-2 cells at 5 uM pretreated for 18 hrs followed by LPS-stimulation and measured after 6 hrs by fluorescence microscopic analysis; type: functional, cell-based; conditions: time 24.0 hrs
[7] = test system: BV-2; assay: Induction of apoptosis in LPS-induced mouse BV-2 cells assessed as increase in Caspase3 expression at 5 to 10 uM pretreated for 18 hrs followed by LPS-stimulation and measured after 6 hrs by Western blot analysis; type: functional, cell-based; conditions: dose 5-10 µM, time 24.0 hrs
[8] = test system: BV-2; assay: Induction of apoptosis in LPS-induced mouse BV-2 cells assessed as increase in Bcl-2 expression at 5 to 10 uM pretreated for 18 hrs followed by LPS-stimulation and measured after 6 hrs by immunofluorescence analysis; type: functional, cell-based; conditions: dose 5-10 µM, time 24.0 hrs
[9] = target: c-Jun N-terminal kinase (Mus musculus) (UniProt Q91Y86+Q9WTU6+Q61831); assay: Inhibition of LPS-induced JNK phosphorylation in mouse BV-2 cells at 5 to 10 uM pretreated for 12 hrs followed by LPS-stimulation and measured after 6 hrs by Western blot analysis; type: cell-based; conditions: dose 5-10 µM, time 18.0 hrs
[10] = test system: BV-2; assay: Induction of apoptosis in LPS-induced mouse BV-2 cells assessed as increase in Caspase3 mRNA expression at 5 to 10 uM pretreated for 18 hrs followed by LPS-stimulation and measured after 6 hrs by qRT-PCR analysis; type: functional, cell-based; conditions: dose 5-10 µM, time 24.0 hrs
[11] = test system: Mus musculus; assay: Anti-parkinson activity in MPTP-induced C57BL/6J mouse model at 15 to 35 mg/kg, ip administered with compound once daily for 2 weeks followed by MPTP addition on day 8 and measured after 2 weeks of compound addition by rotarod test; type: functional, organism-based; conditions: dose 15-35 mg/kg
[12] = target: MAP kinase p38 (Mus musculus) (UniProt P47811+O08911+Q9WUI1+Q9Z1B7); assay: Inhibition of LPS-induced p38 phosphorylation in mouse BV-2 cells at 5 to 10 uM pretreated for 12 hrs followed by LPS-stimulation and measured after 6 hrs by Western blot analysis; type: cell-based; conditions: dose 5-10 µM, time 18.0 hrs
[13] = test system: Mus musculus; assay: Antiinflammatory activity in C57BL/6J mouse assessed as inhibition of MPTP-induced ERK phosphorylation at 15 mg/kg, ip administered with compound once daily for 2 weeks followed by MPTP addition on day 8 and measured after 2 weeks of compound addition Western blot analysis; type: functional, organism-based
[14] = test system: BV-2; assay: Antiinflammatory activity in LPS-induced mouse BV-2 cells assessed as reduction in IL-1beta mRNA expression at 5 to 10 uM pretreated for 18 hrs followed by LPS-stimulation and measured after 6 hrs by qRT-PCR analysis; type: functional, cell-based; conditions: dose 5-10 µM, time 24.0 hrs
[15] = test system: Microglia; assay: Neuroprotective activity against MPTP-induced apoptosis in mouse microglia assessed as reduction in apoptotic cells in brain tissue at 15 mg/kg, ip administered with compound once daily for 2 weeks followed by MPTP addition on day 8 and measured after 2 weeks of compound addition by TUNEL staining based immunofluorescence analysis; type: functional, organism-based
[16] = test system: BV-2; assay: Cytotoxicity against mouse BV-2 cells assessed as reduction in cell viability at 5 uM pretreated for 18 hrs followed by LPS-stimulation and measured after 6 hrs by MTT assay; type: toxicity, cell-based; conditions: bv-2, 24 h
[17] = test system: Microglia; assay: Neuroprotective activity against MPTP-induced apoptosis in mouse microglia assessed as […] expression in brain tissue at 15 mg/kg, ip administered with compound once daily for 2 weeks followed by MPTP addition on day 8 and measured after 2 weeks of compound addition; type: functional, organism-based
[18] = test system: BV-2; assay: Induction of apoptosis in LPS-induced mouse BV-2 cells assessed as increase in BAX mRNA expression at 5 to 10 uM pretreated for 18 hrs followed by LPS-stimulation and measured after 6 hrs by qRT-PCR analysis; type: functional, cell-based; conditions: dose 5-10 µM, time 24.0 hrs
[19] = test system: Mus musculus; assay: Anti-parkinson activity in MPTP-induced C57BL/6J mouse model assessed as increase in locomotion at 15 to 35 mg/kg, ip administered with compound once daily for 2 weeks followed by MPTP addition on day 8 and measured after 2 weeks of compound addition by open field test; type: functional, organism-based; conditions: dose 15-35 mg/kg
[20] = test system: BV-2; assay: Antiinflammatory activity in LPS-induced mouse BV-2 cells assessed as increase in IL-10 mRNA expression at 5 to 10 uM pretreated for 18 hrs followed by LPS-stimulation and measured after 6 hrs by qRT-PCR analysis; type: functional, cell-based; conditions: dose 5-10 µM, time 24.0 hrs
[21] = test system: BV-2; assay: Antiinflammatory activity in LPS-induced mouse BV-2 cells assessed as reduction in IL-6 mRNA expression at 5 to 10 uM pretreated for 18 hrs followed by LPS-stimulation and measured after 6 hrs by qRT-PCR analysis; type: functional, cell-based; conditions: dose 5-10 µM, time 24.0 hrs
[22] = test system: BV-2; assay: Cytotoxicity against mouse BV-2 cells assessed as reduction in cell viability at 10 uM pretreated for 18 hrs followed by LPS-stimulation and measured after 6 hrs by MTT assay; type: toxicity, cell-based; conditions: bv-2, 24 h
[23] = test system: BV-2; assay: Induction of apoptosis in mouse LPS-induced BV-2 cells assessed as increase in cleaved Caspase-3 expression at 5 to 10 uM pretreated for 18 hrs followed by LPS-stimulation and measured after 6 hrs by Western blot analysis; type: functional, cell-based; conditions: dose 5-10 µM, time 24.0 hrs
[24] = test system: BV-2; assay: Antiinflammatory activity in LPS-induced mouse BV-2 cells assessed as increase in CD206 mRNA expression at 5 to 10 uM pretreated for 18 hrs followed by LPS-stimulation and measured after 6 hrs by qRT-PCR analysis; type: functional, cell-based; conditions: dose 5-10 µM, time 24.0 hrs
[25] = test system: BV-2; assay: Antiinflammatory activity in LPS-induced mouse BV-2 cells assessed as increase in Arg-1 mRNA expression at 5 to 10 uM pretreated for 18 hrs followed by LPS-stimulation and measured after 6 hrs by qRT-PCR analysis; type: functional, cell-based; conditions: dose 5-10 µM, time 24.0 hrs
[26] = test system: BV-2; assay: Antiinflammatory activity in LPS-induced mouse BV-2 cells assessed as reduction in TNF-alpha mRNA expression at 5 to 10 uM pretreated for 18 hrs followed by LPS-stimulation and measured after 6 hrs by qRT-PCR analysis; type: functional, cell-based; conditions: dose 5-10 µM, time 24.0 hrs
[27] = test system: Microglia; assay: (§1) Neuroprotective activity against MPTP-induced apoptosis in mouse microglia assessed as increase in Caspase3 expression in brain tissue at 15 mg/kg, ip administered with compound once daily for 2 weeks followed by MPTP addition on day 8 and measured after 2 weeks of compound addition by Western blot analysis; type: functional, organism-based
[28] = test system: Microglia; assay: as §1, with “BAX” for “Caspase3”; type: functional, organism-based
[29] = test system: BV-2; assay: Induction of apoptosis in LPS-induced mouse BV-2 cells assessed as increase in cleaved Caspase-3 expression at 5 to 10 uM pretreated for 18 hrs followed by LPS-stimulation and measured after 6 hrs by immunofluorescence analysis; type: functional, cell-based; conditions: dose 5-10 µM, time 24.0 hrs
[30] = test system: BV-2; assay: Antiinflammatory activity in mouse BV-2 cells assessed as inhibition of LPS-induced NO production at 5 uM pretreated for 18 hrs followed by LPS-induction and measured after 6 hrs relative to control; type: functional; parameters: scale not given: the % may be the effect or the level left; conditions: time 24 hrs
[31] = test system: BV-2; assay: Induction of apoptosis in LPS-induced mouse BV-2 cells assessed as increase in Bcl-2 mRNA expression at 5 to 10 uM pretreated for 18 hrs followed by LPS-stimulation and measured after 6 hrs by qRT-PCR analysis; type: functional, cell-based; conditions: dose 5-10 µM, time 24.0 hrs
[32] = test system: BV-2; assay: Induction of apoptosis in LPS-induced mouse BV-2 cells assessed as increase in BAX expression at 5 to 10 uM pretreated for 18 hrs followed by LPS-stimulation and measured after 6 hrs by Western blot analysis; type: functional, cell-based; conditions: dose 5-10 µM, time 24.0 hrs
[33] = test system: BV-2; assay: Induction of apoptosis in mouse LPS-induced BV-2 cells assessed as increase in Bcl-2 expression at 5 to 10 uM pretreated for 18 hrs followed by LPS-stimulation and measured after 6 hrs by Western blot analysis; type: functional, cell-based; conditions: dose 5-10 µM, time 24.0 hrs
[34] = test system: Mus musculus; assay: Antiinflammatory activity in MPTP-induced C57BL/6J mouse assessed as increase in IL-10 expression at 15 mg/kg, ip administered with compound once daily for 2 weeks followed by MPTP addition on day 8 and measured after 2 weeks of compound addition Western blot analysis; type: functional, organism-based
[35] = test system: BV-2; assay: Antiinflammatory activity in LPS-induced mouse BV-2 cells assessed as reduction in CD86 mRNA expression at 5 to 10 uM pretreated for 18 hrs followed by LPS-stimulation and measured after 6 hrs by qRT-PCR analysis; type: functional, cell-based; conditions: dose 5-10 µM, time 24.0 hrs
[36] = test system: Mus musculus; assay: Antiinflammatory activity in C57BL/6J mouse assessed as inhibition of MPTP-induced p38 phosphorylation at 15 mg/kg, ip administered with compound once daily for 2 weeks followed by MPTP addition on day 8 and measured after 2 weeks of compound addition Western blot analysis; type: functional, organism-based
[37] = test system: BV-2; assay: Inhibition of LPS-induced NF-kappaB nuclear translocation in mouse BV-2 cells at 5 to 10 uM pretreated for 18 hrs followed by LPS-stimulation and measured after 6 hrs by immunofluorescence analysis; type: cell-based; conditions: dose 5-10 µM, time 24.0 hrs
[38] = test system: Microglia; assay: as §1, with “Bcl2” for “Caspase3”; type: functional, organism-based

Sequence of c-Jun N-terminal kinase (Mus musculus) (Q61831 whole entry, looked up): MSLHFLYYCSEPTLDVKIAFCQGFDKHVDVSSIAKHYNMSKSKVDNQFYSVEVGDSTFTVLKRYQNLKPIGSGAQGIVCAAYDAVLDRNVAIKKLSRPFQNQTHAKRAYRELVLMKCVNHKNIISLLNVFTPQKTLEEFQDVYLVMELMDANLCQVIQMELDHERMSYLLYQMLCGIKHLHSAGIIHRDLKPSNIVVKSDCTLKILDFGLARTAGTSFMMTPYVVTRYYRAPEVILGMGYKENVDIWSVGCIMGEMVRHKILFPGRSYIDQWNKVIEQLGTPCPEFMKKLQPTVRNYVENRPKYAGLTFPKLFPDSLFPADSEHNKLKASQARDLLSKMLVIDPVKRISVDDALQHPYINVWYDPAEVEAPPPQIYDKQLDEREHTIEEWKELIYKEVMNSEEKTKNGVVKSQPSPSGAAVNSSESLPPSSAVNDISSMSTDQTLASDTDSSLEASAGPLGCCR
Sequence of c-Jun N-terminal kinase (Mus musculus) (Q91Y86 whole entry, looked up): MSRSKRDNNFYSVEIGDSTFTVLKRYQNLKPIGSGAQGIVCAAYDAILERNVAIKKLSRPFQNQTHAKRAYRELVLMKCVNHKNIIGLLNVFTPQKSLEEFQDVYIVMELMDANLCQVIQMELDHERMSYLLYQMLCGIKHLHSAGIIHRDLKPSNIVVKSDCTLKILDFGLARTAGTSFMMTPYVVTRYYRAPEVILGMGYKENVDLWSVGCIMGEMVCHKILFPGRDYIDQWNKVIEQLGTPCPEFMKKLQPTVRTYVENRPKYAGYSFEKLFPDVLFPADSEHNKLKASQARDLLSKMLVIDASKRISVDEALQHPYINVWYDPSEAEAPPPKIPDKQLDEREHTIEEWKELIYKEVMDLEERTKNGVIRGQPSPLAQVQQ
Sequence of c-Jun N-terminal kinase (Mus musculus) (Q9WTU6 whole entry, looked up): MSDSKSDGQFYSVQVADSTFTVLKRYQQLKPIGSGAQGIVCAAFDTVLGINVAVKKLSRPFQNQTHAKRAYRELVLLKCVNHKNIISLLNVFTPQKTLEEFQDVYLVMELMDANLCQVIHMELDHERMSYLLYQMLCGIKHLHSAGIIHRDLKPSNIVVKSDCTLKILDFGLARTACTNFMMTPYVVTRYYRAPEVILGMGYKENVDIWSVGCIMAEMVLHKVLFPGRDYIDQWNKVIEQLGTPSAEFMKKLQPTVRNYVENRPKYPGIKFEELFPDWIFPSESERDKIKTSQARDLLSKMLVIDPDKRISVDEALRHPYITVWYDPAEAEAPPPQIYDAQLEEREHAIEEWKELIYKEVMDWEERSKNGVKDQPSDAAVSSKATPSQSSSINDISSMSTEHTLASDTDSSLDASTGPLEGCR

Cc1cccc(-c2noc(-c3cccc4c(=O)c(C)c(-c5ccccc5)oc34)n2)c1
inhibition [1]: Active
inhibition [2]: Active
Activity [3]: Active
Activity [4]: Active
Activity [5]: Active
inhibition [6]: Active
Activity [7]: Active
Activity [8]: Active
inhibition [9]: Active
Activity [10]: Active
Activity [11]: Active
inhibition [12]: Active
Activity [13]: Active
Activity [14]: Active
Activity [15]: Active
Activity [16]: Non-Toxic
Activity [17]: Active
Activity [18]: Active
Activity [19]: Active
Activity [20]: Active
Activity [21]: Active
Activity [22]: Non-Toxic
Activity [23]: Active
Activity [24]: Active
Activity [25]: Active
Activity [26]: Active
Activity [27]: Active
Activity [28]: Active
Activity [29]: Active
Activity [30]: 64.2%
Activity [31]: Active
Activity [32]: Active
Activity [33]: Active
Activity [34]: Active
Activity [35]: Active
Activity [36]: Active
inhibition [37]: Active
Activity [38]: Active

COc1cccc(-c2noc(-c3cccc4c(=O)c(C)c(-c5ccccc5)oc34)n2)c1
inhibition [6]: inactive
Activity [30]: 22.4%

Cc1c(-c2ccccc2)oc2c(-c3nc(-c4ccc(Br)cc4)no3)cccc2c1=O
inhibition [6]: Active
Activity [16]: Non-Toxic
Activity [30]: 41.6%

Cc1c(-c2ccccc2)oc2c(-c3nc(-c4ccccc4Br)no3)cccc2c1=O
inhibition [6]: Active
Activity [30]: 41.6%

CCc1ccc(-c2noc(-c3cccc4c(=O)c(C)c(-c5ccccc5)oc34)n2)cc1
inhibition [6]: Active
Activity [30]: 41.6%

Cc1c(-c2ccccc2)oc2c(-c3nc(-c4cccc(Br)c4)no3)cccc2c1=O
inhibition [6]: Active
Activity [16]: Non-Toxic
Activity [30]: 41.6%

Cc1c(-c2ccccc2)oc2c(-c3nc(-c4ccc(F)cc4)no3)cccc2c1=O
inhibition [6]: Active
Activity [16]: Non-Toxic
Activity [22]: Non-Toxic
Activity [30]: 41.6%

Cc1c(-c2ccccc2)oc2c(-c3nc(-c4cccc(F)c4)no3)cccc2c1=O
inhibition [6]: Active
Activity [30]: 22.4%

Cc1ccc(-c2noc(-c3cccc4c(=O)c(C)c(-c5ccccc5)oc34)n2)cc1
inhibition [6]: Active
Activity [30]: 22.4%
